Measured values taken from US8193175B2, “Ruthenium complexes for treating cancers” (Universite de Strasbourg, priority 2004, dated 2012).
pIC50: −log10 of the molar value.

Columns and labels:
RDM4 cells = assay: Chemo-radiotherapeutic association on RDM4 cells (cell counting, propidium iodure apoptosis); format: cell-based, mouse; settings: for proliferation of non-irradiated RDM4 cells (cell counting): cisplatinum 0.7 μM, ruthenium derivative 10 μM, no irradiation; for proliferation of RDM4 cells, compound plus ionising radiation: 4 Gy rapid neutrons plus compound 11 (10 μM)
Protocol: Cells of this same line are treated with concentrations of 0.7 μM cisplatinum and 15 μM complex 11. 24 hours after the start of the treatment, the cells are irradiated at 4 Gy with rapid neutrons. The effects of the chemo-radiotherapeutic association are then determined by simple cell counting, measuring the concentration of cells in the medium during treatment 24 hrs, 72 hrs and 168 hrs after irradiation.
Evaluation of the effects of a combined “ionising radiation+RDC-11” treatment upon proliferation and survival of the RDM4 murine cells. These cells originate from an AKR mouse lymphoma. The different tests were carried out in vitro, and five independent experiments were carried out.
The radiations used were rapid neutrons originating from the collision of 65 MeV protons on a Beryllium target (produced at the Cyclotron, Louvain la Neuve (LLN) in Belgium). The results of just one of these experiments which is representative of a set of three experiments carried out with this type of radiation are shown.
The RDM4 cells are adjusted to 50,000 cells/ml, in RPMI 1640 culture medium to which 10% foetal calf serum is added. 4 25 cm2 culture flasks are filled with cell suspension, at the rate of 10 ml/flask, i.e. 500,000 cells/flask.
Four flasks are prepared thus, each corresponding to a different experimental group: • Group 1: non-irradiated, untreated cells (Et/NI in FIG. 9) • Group 2: non-irradiated cells, treated with RDC-11 (RDC-11/NI in FIG. 9) • Group 3: irradiated, non-treated cells (Et/4 Gy in FIG. 9) • Group 4: irradiated cells, treated with RDC-11 (RDC-11/4 Gy in FIG. 9)
RDC-11, prepared from an ethanolic solution, is added to the cells (flask 2 and 4) 6 hours before irradiation. An identical volume of ethanol (Et, 66 μl) is added to flasks 1 and 3. The final concentration of RDC-11 is 10 μM, and the medium is not replaced over the 9 days of the experiment.
Flasks 3 and 4 are irradiated with 4 Gy, at ambient temperature, then returned to culture at 37° C.
On the days following irradiation, aliquots of cell suspensions are regularly taken. The number of cells is determined using a Coulter Counter. Other cells are fixed in ethanol, then marked with propidium iodure, in order to determined the percentage apoptosis.

TK6 and NH32 lines = assay: Compared proliferation of lines TK6 and NH32; format: cell-based, human
Protocol: The influence of the p53 protein upon the effects induced by the products was determined by using the human lymphoblastoid line TK6 (p53 wild-type) and its NH32 variant of which the p53 gene was totally inactivated by double homologous recombination (Chuang et al, 1999). The TK6 cells originate from the American Tissue Culture Collection (ATGC, Manassas, Va., USA). The NH32 cells were supplied by H. L. Liber (Chuang et al, 1999).
(§1) All of these cells are cultivated in RPMI 1640-Glutamax, supplemented by 10% calf foetal serum heat inactivated at 56° C. for 30 minutes, 1 mM sodium pyruvate, 1 mM non-essential amino acids and 50 μg/mL gentamycine (Life Technologies, Cergy Pontoise, France). The cultures are kept in an incubator at 37° C. with a moisture saturated atmosphere, with 5% CO2.
This test uses the UptiBlue reagent (Interchim, Montluçon, France), metabolised by the living cells. The cells are incubated on plates with 96 wells with 10^4 cells/well (200 μL) with the product and cultivated for 72 hours. Then, 20 μL UptiBlue are added to each well. After 3 hours incubation, the fluorescence of the samples contained in the plates is measured at 590 nm (excitation at 560 nm), using a Fluorolite 1000 microplate reader (Dynex technologies, Issy-Les-Moulineaux, France). […]

HL-60 = assay: Proliferation test (UptiBlue) on HL-60; format: cell-based, human
Protocol: The products are tested on different cell lines. The cells used are RDM4 from a murine T lymphoma and a MOLT-4 line originating from an acute lymphoblastic leukemia. These cancer lines both express the p53 protein, unlike the HL-60 cells from a human promyelocytary leukemia where, following deletion of its gene, p53 is absent.
as §1
This test uses the UptiBlue reagent (Interchim, Montluçon, France), metabolised by the living cells. The cells are incubated on plates with 96 wells with 10^4 cells/well (200 μL) with the product and cultivated for 72 hours. Then, 20 μL UptiBlue are added to each well. After 3 hours incubation, the fluorescence of the samples contained in the plates is measured at 590 nm (excitation at 560 nm), using a Fluorolite 1000 microplate reader (Dynex technologies, Issy-Les-Moulineaux, France).
This sensitivity is reversed with the Ru complex. […] These latter, which have a normal p53 gene, are less sensitive to the Ru complex. […]

TK6 and NH32 cells = assay: Apoptosis by marking with Annexin-V on TK6 and NH32 cells; format: cell-based, human; settings: 1.5 μM
Protocol: The toxicity of the organoruthenium complex on the TK6 and NH32 lymphoblastoid cells is measured with Annexin-V—a specific marker of precocious apoptosis. This marking is implemented on cells treated with derivative 11 at 1.5 μM after 0 hrs, 24 hrs, 48 hrs, 72 hrs and 96 hrs. […] Beyond 72 hrs, the apoptosis reaches the maximum limit of 90% and forms a plateau. In the control cells, the apoptosis rate remains less than 10% for the whole of the experiment. The increase over time of the externalisation of the anionic phospholipids is similar in the two cell lines, but the TK6 cells enter into apoptosis with a delay of a dozen hours on their p53-deficient variants. The NH32 line reaches the limit formed by the 90% plateau earlier than the TK6 cells. The p53 protein seems to slow down activation of the precocious signs of apoptosis induced by the Ru complexes.

RDM4 = assay: Apoptosis by marking with Annexin-V on RDM4; format: cell-based, mouse
Protocol: Cell death is measured by a first specific marking of the apoptosis. The externalisation of the anionic phospholipids, normally located on the inner layer of the plasmic membrane, is one of the precocious markers of apoptosis (Martin et al, 1996). Annexin-V is a protein which fixes specifically onto the phosphatidylserines in the presence of calcium. When Annexin-V is coupled to a fluorochrome, it makes it possible to quantify the apoptotic cells by flux cytometry.
The control cells are treated with the equivalent volume of solvent (ethanol). […] After 72 hrs, the apoptosis rate is still as low as that of the control cells. On the other hand, with treatment at 45 μM, this rate already reaches 70% at 24 hrs and exceeds 99% after 48 hrs—a sign of significant apoptosis induction.

Molecule | proliferation of non-irradiated RDM4 cells (cell counting) (RDM4 cells) | proliferation of TK6 (p53 wild-type) compared with NH32 (p53-/-) (TK6 and NH32 lines) | pIC50 (HL-60; p53-deficient line) | externalisation of the phosphatidylserines (Annexin-V) (TK6 and NH32 cells; 48 hrs) | externalisation of the phosphatidylserines (Annexin-V) (TK6 and NH32 cells; 72 hrs of continuous treatment) [%] | apoptosis rate (Annexin-V) (RDM4; 15 μM, up to 72 hrs) | apoptosis rate (Annexin-V) (RDM4; 45 μM, 24 hrs) [%] | proliferation of RDM4 cells, compound plus ionising radiation (RDM4 cells) | proliferation of RDM4 cells, compound plus ionising radiation (RDM4 cells; listed as RDC-11) | effect of the combination with irradiation (RDM4 cells; RDC-11 10 μM plus 4 Gy) | percentage of cells in apoptosis (propidium iodure), co-treatment (RDM4 cells; RDC-11 10 μM plus 4 Gy, three days after start) | growth inhibition, HL-60 compared with MOLT-4 (HL-60; p53-deficient HL-60 vs MOLT-4 with normal p53)
N.N.[Cl][Pt][Cl] [Cisplatinum, reference compound] | inhibits proliferation more effectively than the ruthenium derivative | more significant effect upon the p53+/+ cells than upon the p53-deficient cells | 6.00 | – | – | – | – | – | – | – | – | –
[Ru(C6H4-2-C5H4N)(phen)(NCMe)2]PF6 [Compound 11] | negligible | can be superposed | – | exceeds 50% | 90 | does not shown any effect | 70 | cell proliferation practically zero | cell growth is significantly slowed down | supra-additive effect | greater than the sum of treatments taken separately | more significant for HL-60s than for MOLT-4s
